# From US20230293409A1, “Compositions Comprising Antimicrobials and (Bio)-Alkanediols for Skin Protection” (Symrise AG, priority 2020, published 2023)
# Where two headings read alike, the source gives them in different places.
# Experiments:
# [1] = system: human sebaceous glands; test: Sebum control: micro-dissected cultured sebaceous glands, lipids normalized upon proteins; assay type: cell-based; conditions: for sebum reduction: human sebaceous glands cultured six days, compared to untreated control, FIG. 2, single donor
# Procedure: Additional tests were performed with human sebaceous glands in order to verify the modulatory activity of different 1,2-alkanediols on sebum secretion. Several microbial species on the skin are lipid dependent and feed on the human sebum (e.g., Corynebacterium, Propionibacterium). Accordingly, sebum reduction can indirectly support the reduction of microorganisms on the skin and in this way also indirectly support e.g., dandruff or acne reduction. For these experiments sebaceous glands had been micro-dissected and cultured with medium. The medium without any supplement served as untreated control. The medium with 5 μM Capsaicin served as positive control. Additionally, the culture medium was supplemented with different concentrations of alkanediols. After six days the sebaceous glands were collected and lipids and proteins quantified. The total lipid amount being representative of sebum production was obtained by normalizing the quantified lipids upon the quantified proteins (i.e., mg of lipids/mg of proteins).
# [2] = Maximum solubility of alkanediols in water; assay type: physicochemical; conditions: ambient temperature after 24 h storage at 5° C.; visual observation
# Text: For the determination of the maximum water solubility of an alkanediol, water and different concentrations of the respective alkanediol were blended by stirring. […] The determination of whether the alkanediol has dissolved in water is based entirely on visual observation.
# [3] = system: Staphylococcus aureus; test: Minimum Inhibitory Concentration (MIC) test and Kull synergy index; assay type: cell-based
# [4] = system: Corynebacterium jeikeium; test: Minimum Inhibitory Concentration (MIC) test; assay type: cell-based; conditions: single substance (Tables 1, 2)
# Procedure: (§1) The Minimum Inhibitory Concentration (MIC) test is a test on growth inhibition. The estimation of MICs is executed in 96 well plates. Through the comparison of bacterial growth with positive and negative controls via optical density (OD), different concentrations of given test substances are evaluated. Bacteria were cultivated under adjusted conditions based on information of the German Collection of Microorganisms and Cell Cultures (DSMZ) and stored in 50% glycerol prior to use. Afterwards, the following method was applied: Growth medium (according to microorganism) was added to each well of the microplate. Then, the test-substances were added in different concentrations, positive controls (water controls only with medium) and negative controls (benchmarks according to organism). Finally, the microorganisms were added in a concentration of 10^6 CFU/ml (CFU=colony forming units). The incubation of the microplates was carried out at appropriate conditions. According to the resulting growth, substance concentrations are labelled either as inhibiting or not and MIC is defined as the lowest concentration where a complete growth inhibition is visible. Experiments at concentration limits (highest concentration labelled as growth and lowest concentration labelled as inhibiting) are performed at least twice.
# [5] = system: Propionibacterium acnes; test: Minimum Inhibitory Concentration (MIC) test; assay type: cell-based; conditions: Cutibacterium acnes, single substance (Tables 1, 2)
# Procedure: as §1
# [6] = system: Staphylococcus hominis; test: Minimum Inhibitory Concentration (MIC) test; assay type: cell-based; conditions: single substance (Tables 1, 2)
# Procedure: as §1
# [7] = system: Escherichia coli; test: Minimum Inhibitory Concentration (MIC) test; assay type: cell-based; conditions: single substance (Tables 1, 2)
# Procedure: as §1
# [8] = system: Candida albicans; test: Minimum Inhibitory Concentration (MIC) test; assay type: cell-based; conditions: single substance (Tables 1, 2)
# Procedure: as §1
# [9] = Table 3, Component B alone, read-out: MIC Component B in ppm
structure (smiles),measurement,setting,value
"CCCCCC(O)CO (stereo not shown) [1,2-Heptanediol, 1,2-heptanediol]",sebum reduction,[1],20%
same,Maximum solubility in water (% by weight),[2],2.5 % by weight
"CCCCC(O)C(C)O (stereo not shown) [2,3-Heptanediol, 2,3-heptanediol]",Maximum solubility in water (% by weight),[2],3.6 % by weight
OCc1ccccc1 [Benzyl Alcohol],MIC,[3]; [9],5000 µg/mL
same,MIC Component B in ppm,"[3]; Table 4, Component B alone",5000 ppm
"CCCCCCCC(O)CO (stereo not shown) [1,2-Nonanediol, 1,2-nonanediol]",concentration dependency of sebum reduction,"[1]; different concentrations, FIG. 3, single donor different from FIG. 2",experimentally confirmed
same,Maximum solubility in water (% by weight),[2],0.1 % by weight
same,MIC Component A in ppm,"[3]; Table 4, Component A alone",1000 ppm
"CCCCC(O)CO (stereo not shown) [1,2-Hexandiol, 1,2-hexanediol]",Maximum solubility in water (% by weight),[2],50 % by weight
CCCCCCCC(=O)NO [Caprylhydroxamic acid],MIC,[3]; [9],1000 µg/mL
same,MIC Component B in ppm,"[3]; Table 4, Component B alone",1000 ppm
CCCCCCCC(=O)OCC(O)CO (stereo not shown) [Glyceryl caprylate],MIC,[3]; [9],2500 µg/mL
"CCCCCCC(O)CO (stereo not shown) [1,2-Octandiol, 1,2-octanediol]",Maximum solubility in water (% by weight),[2],0.5 % by weight
"CCCCCC(O)C(C)O (stereo not shown) [2,3-Octanediol, 2,3-octanediol]",Maximum solubility in water (% by weight),[2],1.5 % by weight
"CCCCCCCCCC(O)CO (stereo not shown) [1,2-Undecanediol, 1,2-undecanediol]",MIC,[4],250 µg/mL
same,MIC,[5],250 µg/mL
same,MIC,[6],125 µg/mL
same,MIC,[7],250 µg/mL
same,MIC,[8],64 µg/mL
same,sebum reduction,[1],45%
same,MIC,"[3]; single substance (Tables 1, 2), read-out: Minimum Inhibitory Concentration (MIC)",125 µg/mL
"CCCCCCC(O)C(C)O (stereo not shown) [2,3-Nonanediol, 2,3-nonanediol]",sebum reduction,[1],40%
same,Maximum solubility in water (% by weight),[2],0.3 % by weight
CCCCC(CC)COCC(O)CO (stereo not shown) [Ethylhexylglycerin],MIC Component B in ppm,"[3]; Table 3, Component B alone",2000 ppm
CC(C)(C)C(=O)C(Oc1ccc(Cl)cc1)n1ccnc1 (stereo not shown) [Climbazole],MIC,[3]; [9],250 µg/mL
